From PubChem BioAssay AID602347 (The Scripps Research Institute Molecular Screening Center, 2012)

Target: Monoacylglycerol lipase ABHD6 (Mus musculus) (UniProt Q8R2Y0)
Assay: in vivo brain ABHD6 target engagement – gel-based competitive ABPP, fluorescence, mouse brain, in vivo study for DAGLb inhibitor project, late-stage follow-up (AID 602347)
Settings: in vivo dosing, stronger effect = higher value, dose or concentration not given here

Sequence of Monoacylglycerol lipase ABHD6 (Mus musculus) (Q8R2Y0 whole entry, looked up): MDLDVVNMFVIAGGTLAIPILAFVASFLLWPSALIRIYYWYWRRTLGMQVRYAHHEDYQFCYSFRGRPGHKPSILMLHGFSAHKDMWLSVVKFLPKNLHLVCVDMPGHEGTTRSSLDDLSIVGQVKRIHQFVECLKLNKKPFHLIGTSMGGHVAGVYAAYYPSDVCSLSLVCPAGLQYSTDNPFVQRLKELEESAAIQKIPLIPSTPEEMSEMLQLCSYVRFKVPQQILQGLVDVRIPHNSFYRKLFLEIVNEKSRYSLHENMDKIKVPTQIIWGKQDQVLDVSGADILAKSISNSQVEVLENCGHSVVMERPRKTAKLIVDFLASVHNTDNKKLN

Row | Structure (SMILES) | inhibition (with FP-Rh probe) [%] | inhibition (with HT-01 probe) [%]
1 | COc1ccccc1-c1ccc(-c2cn(C(=O)N3CCCCC3Cc3ccccc3)nn2)cc1 (stereo unspecified) | 100 | 100
2 | O=C(N1CCCCC1Cc1ccccc1)n1cc(-c2ccc(-c3ccccc3)cc2)nn1 (stereo unspecified) | 100 | 100
3 | O=C(N1CCCCC1Cc1ccccc1)n1cc(-c2ccc(-c3ccccc3C(F)(F)F)cc2)nn1 (stereo unspecified) | 95 | 95
